Reference: US8445510B2, “Fused bicyclic kinase inhibitors” (OSI Pharmaceuticals, LLC, priority 2011, dated 2013)

Experiments:
MKN45 cells = assay: MKN45 cell proliferation assay (CellTiter-Glo); type: cell-based; settings: Homo sapiens, MKN-45, 72 h; MKN45 cell line; 3 days incubation; at least duplicate experiments; read-out: Prolif. IC50
Aurora B = target: T1, Aurora B (Homo sapiens, UniProt Q96GD4); assay: Aurora B cell mechanistic assay (HT-29), phospho-Histone H3 (Ser10) ELISA; type: cell-based; settings: HT-29 cell line; inhibition of phospho-Histone H3 (Ser10); at least duplicate experiments (italicized if single experiment); read-out: Aurora B mech IC50
T1 construct: HT-29 cells grown in complete growth media
T1 sequence (Q96GD4 whole entry): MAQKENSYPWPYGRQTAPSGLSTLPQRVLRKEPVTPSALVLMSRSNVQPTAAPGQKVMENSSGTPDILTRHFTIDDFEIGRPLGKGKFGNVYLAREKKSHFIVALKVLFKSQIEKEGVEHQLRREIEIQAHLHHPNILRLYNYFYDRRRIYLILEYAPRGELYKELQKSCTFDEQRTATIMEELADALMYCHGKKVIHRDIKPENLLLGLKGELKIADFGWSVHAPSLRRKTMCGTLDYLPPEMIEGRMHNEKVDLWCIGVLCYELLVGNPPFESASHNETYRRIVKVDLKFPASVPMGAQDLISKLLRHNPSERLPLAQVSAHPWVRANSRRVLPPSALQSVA
Procedure: The cellular activity of the compounds of the present invention against Aurora B may be determined by the following procedure. HT-29 cells grown in complete growth media (McCoy's 5A, 10% FCS, 1% L-glutamine) were plated into wells of a 96 well tissue culture plate (Falcon 3072) at a cell density of 4×10^4 cells/0.09 ml media/well. Cells were subsequently incubated overnight in a 5% CO2 humidified 37° C. incubator. The following day 10 μl of a 10× stock of test compound serially diluted in media was added to the cells and incubated for 1 h at 37° C. at which time Calyculin A (Cell Signaling #9902) was added at a concentration of 100 nM and cells incubated for an additional 30 minutes in a 5% CO2 humidified 37° C. incubator. Media was then aspirated and cells lysed using a Triton based lysis buffer. Lysates were transferred to a pre-coated anti-Histone H3 antibody coated plate supplied by Cell Signaling in their PathScan phospho-Histone H3 (Ser10) ELISA kit (#7155). After an overnight incubation with lysate the ELISA was continued following the manufacturer's instructions. Signal was measured on a Wallac Victor plate reader at 450 nm. DMSO control treated cells served as 100% signal and an Aurora B kinase inhibitor served as 100% inhibition. The percent inhibition of phospho-Histone H3 (Ser10) was expressed as % control. IC50 values were calculated from the percent control data using a standard four-parameter model.
The IC50 values of exemplary compounds of the present invention determined in a Aurora B cell mechanistic assay using the HT-29 cell line according to the procedures described herein in at least duplicate experiments are abbreviated as follows and are shown in Table 4: A, IC50≦0.05 μM; B, 0.05 μM<IC50≦0.2 μM; C, 0.2 μM<IC50≦1 μM; D, IC50>1 μM; ND, not determined. If only data from single experiments are available, the abbreviations are italicized. The Example # of Table 4 corresponds to the compound example number as illustrated in the Examples section.

Structure (SMILES)	IC50 (MKN45 cells)	IC50 (Aurora B)
CCc1c(-c2cnc3[nH]cc([C@H](C)c4c(OC(F)F)ccc(F)c4Cl)c3c2)cnn1CC(C)(C)O [Example 72, 1-[4-(3-{(1S)-1-[2-Chloro-6-(difluoromethoxy)-3-fluorophenyl]ethyl}-1H-pyrrolo[2,3-b]pyridin-5-yl)-5-ethyl-1H-pyrazol-1-yl]-2-methylpropan-2-ol]	50 to 200 nM	200 to 1000 nM
Cc1nn(C[C@@H](O)CO)c(C)c1-c1cnc2[nH]cc([C@H](C)c3c(OC(F)F)ccc(F)c3Cl)c2c1 [Example 69, (2R)-3-[4-(3-{(1S)-1-[2-Chloro-6-(difluoromethoxy)-3-fluorophenyl]ethyl}-1H-pyrrolo[2,3-b]pyridin-5-yl)-3,5-dimethyl-1H-pyrazol-1-yl]propane-1,2-diol]	≤ 50 nM	> 1000 nM
COc1ccc(F)c(Cl)c1[C@@H](C)c1c[nH]c2ncc(-c3c[nH]nc3C)cc12 [Example 1, 3-[(1S)-1-(2-Chloro-3-fluoro-6-methoxyphenyl)ethyl]-5-(3-methyl-1H-pyrazol-4-yl)-1H-pyrrolo[2,3-b]pyridine]	≤ 50 nM	200 to 1000 nM
COc1ccc(F)c(Cl)c1[C@@H](C)c1c[nH]c2ncc(-c3cn(CC(C)(C)O)nc3C)cc12 [Example 7, 1-(4-{3-[(1S)-1-(2-Chloro-3-fluoro-6-methoxyphenyl)ethyl]-1H-pyrrolo[2,3-b]pyridin-5-yl}-3-methyl-1H-pyrazol-1-yl)-2-methylpropan-2-ol]	≤ 50 nM	200 to 1000 nM
CNC(=O)[C@H]1CC[C@H](n2cc(-c3cnc4[nH]cc([C@H](C)c5c(OC)ccc(F)c5Cl)c4c3)c(C)n2)CC1 [Example 22, trans-4-(4-{3-[(1S)-1-(2-Chloro-3-fluoro-6-methoxyphenyl)ethyl]-1H-pyrrolo[2,3-b]pyridin-5-yl}-3-methyl-1H-pyrazol-1-yl)-N-methylcyclohexanecarboxamide]	≤ 50 nM	50 to 200 nM
COc1ccc(F)c(Cl)c1[C@@H](C)c1c[nH]c2ncc(-c3cn([C@@H]4C[C@@H](O)[C@@H](O)C4)nc3C)cc12 [Example 32, (1R,2S,4S)-4-(4-{3-[(1S)-1-(2-Chloro-3-fluoro-6-methoxyphenyl)ethyl]-1H-pyrrolo[2,3-b]pyridin-5-yl}-3-methyl-1H-pyrazol-1-yl)cyclopentane-1,2-diol]	≤ 50 nM	50 to 200 nM
COc1ccc(F)c(Cl)c1[C@@H](C)c1c[nH]c2ncc(-c3cn(C)nc3C#N)cc12 [Example 46, 4-{3-[(1S)-1-(2-Chloro-3-fluoro-6-methoxyphenyl)ethyl]-1H-pyrrolo[2,3-b]pyridin-5-yl}-1-methyl-1H-pyrazole-3-carbonitrile]	50 to 200 nM	> 1000 nM
CCc1nn(CC(C)(C)O)cc1-c1cnc2[nH]cc([C@H](C)c3c(OC(F)F)ccc(F)c3Cl)c2c1 [Example 73, 1-[4-(3-{(1S)-1-[2-Chloro-6-(difluoromethoxy)-3-fluorophenyl]ethyl}-1H-pyrrolo[2,3-b]pyridin-5-yl)-3-ethyl-1H-pyrazol-1-yl]-2-methylpropan-2-ol]	≤ 50 nM	> 1000 nM
COc1ccc(F)c(Cl)c1[C@@H](C)c1c[nH]c2ncc(-c3cn(C)nc3C)cc12 [Example 2, 3-[(1S)-1-(2-Chloro-3-fluoro-6-methoxyphenyl)ethyl]-5-(1,3-dimethyl-1H-pyrazol-4-yl)-1H-pyrrolo[2,3-b]pyridine]	50 to 200 nM	50 to 200 nM
[2H][C@@](C)(c1c(OC)ccc(F)c1Cl)c1c[nH]c2ncc(-c3cnn([C@H]4CC[C@H](O)CC4)c3C)cc12 [Example 110, trans-4-(4-{3-[(1S)-1-(2-Chloro-3-fluoro-6-methoxyphenyl)(1-^2H)ethyl]-1H-pyrrolo[2,3-b]pyridin-5-yl}-5-methyl-1H-pyrazol-1-yl)cyclohexanol]	≤ 50 nM	> 1000 nM
COc1cc(OC)c(Cl)c([C@@H](C)c2c[nH]c3ncc(-c4cnn([C@H]5CC[C@H](O)CC5)c4C)cc23)c1Cl [Example 106, trans-4-(4-{3-[(1S)-1-(2,6-Dichloro-3,5-dimethoxyphenyl)ethyl]-1H-pyrrolo[2,3-b]pyridin-5-yl}-5-methyl-1H-pyrazol-1-yl)cyclohexanol]	≤ 50 nM	> 1000 nM
COc1ccc(F)c(Cl)c1[C@@H](C)c1c[nH]c2ncc(-c3cn([C@H]4CC[C@H](C(N)=O)CC4)nc3C)cc12 [Example 19, trans-4-(4-{3-[(1S)-1-(2-Chloro-3-fluoro-6-methoxyphenyl)ethyl]-1H-pyrrolo[2,3-b]pyridin-5-yl}-3-methyl-1H-pyrazol-1-yl)cyclohexanecarboxamide]	≤ 50 nM	50 to 200 nM
COc1ccc(F)c(Cl)c1[C@@H](C)c1c[nH]c2ncc(-c3cnn([C@H]4CC[C@H](C(N)=O)CC4)c3C)cc12 [Example 18, trans-4-(4-{3-[(1S)-1-(2-chloro-3-fluoro-6-methoxyphenyl)ethyl]-1H-pyrrolo[2,3-b]pyridin-5-yl}-5-methyl-1H-pyrazol-1-yl)cyclohexanecarboxamide]	≤ 50 nM	200 to 1000 nM
Cc1c(-c2cnc3[nH]cc([C@H](C)c4c(Cl)ccc(F)c4Cl)c3c2)cnn1[C@H]1CC[C@H](O)CC1 [Example 67, trans-4-(4-{3-[(1S)-1-(2,6-Dichloro-3-fluorophenyl)ethyl]-1H-pyrrolo[2,3-b]pyridin-5-yl}-5-methyl-1H-pyrazol-1-yl)cyclohexanol]	≤ 50 nM	> 1000 nM
COc1ccc(F)c(Cl)c1[C@@H](C)c1c[nH]c2ncc(-c3c(CO)nn(C)c3C)cc12 [Example 51, (4-{3-[(1S)-1-(2-Chloro-3-fluoro-6-methoxyphenyl)ethyl]-1H-pyrrolo[2,3-b]pyridin-5-yl}-1,5-dimethyl-1H-pyrazol-3-yl)methanol]	50 to 200 nM	> 1000 nM
COc1ccc(F)c(Cl)c1[C@@H](C)c1c[nH]c2ncc(-c3cnn([C@H]4CC[C@H](N(C)C)CC4)c3C)cc12 [Example 53, trans-4-(4-{3-[(1S)-1-(2-Chloro-3-fluoro-6-methoxyphenyl)ethyl]-1H-pyrrolo[2,3-b]pyridin-5-yl}-5-methyl-1H-pyrazol-1-yl)-N,N-dimethylcyclohexanamine]	≤ 50 nM	50 to 200 nM
CNC(=O)[C@H]1CC[C@H](n2ncc(-c3cnc4[nH]cc([C@H](C)c5c(OC)ccc(F)c5Cl)c4c3)c2C)CC1 [Example 17, trans-4-(4-{3-[(1S)-1-(2-Chloro-3-fluoro-6-methoxyphenyl)ethyl]-1H-pyrrolo[2,3-b]pyridin-5-yl}-5-methyl-1H-pyrazol-1-yl)-N-methyl cyclohexanecarboxamide]	≤ 50 nM	200 to 1000 nM
Cc1c(-c2cnc3[nH]cc([C@H](C)c4c(OC(F)F)ccc(F)c4Cl)c3c2)cnn1[C@H]1CC[C@H](C(N)=O)CC1 [Example 76, trans-4-[4-(3-{(1S)-1-[2-Chloro-6-(difluoromethoxy)-3-fluorophenyl]ethyl}-1H-pyrrolo[2,3-b]pyridin-5-yl)-5-methyl-1H-pyrazol-1-yl]cyclohexanecarboxamide]	≤ 50 nM	200 to 1000 nM
Cc1nn(C[C@@H](O)CO)c(C)c1-c1cnc2[nH]cc([C@H](C)c3c(Cl)ccc(F)c3Cl)c2c1 [Example 66, (2R)-3-(4-{3-[(1S)-1-(2,6-Dichloro-3-fluorophenyl)ethyl]-1H-pyrrolo[2,3-b]pyridin-5-yl}-3,5-dimethyl-1H-pyrazol-1-yl)propane-1,2-diol]	≤ 50 nM	> 1000 nM
Cc1c(-c2cnc3[nH]cc(C(C#N)c4c(Cl)ccc(F)c4Cl)c3c2)cnn1[C@H]1CC[C@H](O)CC1 (stereo partly drawn) [Example 108, (2,6-Dichloro-3-fluorophenyl){5-[1-(trans-4-hydroxycyclohexyl)-5-methyl-1H-pyrazol-4-yl]-1H-pyrrolo[2,3-b]pyridin-3-yl}acetonitrile]	50 to 200 nM	> 1000 nM
Cc1c(-c2cnc3[nH]cc([C@H](C)c4c(OC(F)F)ccc(F)c4Cl)c3c2)cnn1C[C@H](O)CO [Example 70, (2S)-3-[4-(3-{(1S)-1-[2-Chloro-6-(difluoromethoxy)-3-fluorophenyl]ethyl}-1H-pyrrolo[2,3-b]pyridin-5-yl)-5-methyl-1H-pyrazol-1-yl]propane-1,2-diol]	≤ 50 nM	200 to 1000 nM
CCc1c(-c2cnc3[nH]cc([C@H](C)c4c(OC)ccc(F)c4Cl)c3c2)cnn1CC(C)(C)O [Example 11, 1-(4-{3-[(1S)-1-(2-Chloro-3-fluoro-6-methoxyphenyl)ethyl]-1H-pyrrolo[2,3-b]pyridin-5-yl}-5-ethyl-1H-pyrazol-1-yl)-2-methylpropan-2-ol]	50 to 200 nM	> 1000 nM
